Literature values in patent EP4260848A1, “PHARMACEUTICAL COMPOSITION FOR SOLID DOSAGE FORM CONTAINING NILOTINIB AND PROCESS FOR ITS PREPARATION” (Lotus Pharmaceutical Co., Ltd., priority 2022, dated 2023).
Structures can show the parent of a compound that is named as a salt.

Tests used:
[1] = not given; remark: listed apart in the source

Row | SMILES | aqueous solubility (all solid forms (anhydrates, hydrates, solvates)) | pKa1 ([1]; determined) | pKa2 ([1]; estimated) | solubility in aqueous solutions (dependence on pH)
1 | Cc1cn(-c2cc(NC(=O)c3ccc(C)c(Nc4nccc(-c5cccnc5)n4)c3)cc(C(F)(F)F)c2)cn1 [Nilotinib hydrochloride] | poor aqueous solubility | – | – | –
2 | Cc1cn(-c2cc(NC(=O)c3ccc(C)c(Nc4nccc(-c5cccnc5)n4)c3)cc(C(F)(F)F)c2)cn1 [Nilotinib, 4-methyl-N-[3-(4-methylimidazol-1-yl)-5-(trifluoromethyl)phenyl]-3-[(4-pyridin-3-ylpyrimidin-2-yl)amino]benzamide] | – | 2.1 | 5.4 | decreases with increasing pH
